# Test system: aldoB−/− KO mice
# Test: Fructose-induced hypoglycemia in Aldolase B Knockout Mice
# Format: in vivo
# Settings: 25 mg/kg IP 30 min before and repeated at oral fructose gavage (1.5 g/kg), glucose over 90 minutes
# From the text: Example 12 describes fructokinase inhibition results and fructose-induce hypoglycemia prevention results obtained from in vivo assay in Aldolase B Knockout Mice. Hereditary Fructose intolerance is a rare genetic disease due to deficiency of aldolase B that is associated with over activation of KHK-C. One of the key features in these individuals is the development of acute hypoglycemia following exposure to fructose ingestion due to rapid uptake of glucose into the liver with the formation of glycogen. Recently, an aldolase-B KO (aldoB^−/−) mouse that has the clinical features of HFI in humans was developed. These mice develop immediate dose-dependent hypoglycemia in response to fructose, but also develop fatty liver within days of low grade fructose feeding.
# The procedure used in Example 12 consisted of first fasting animals for six hours, followed by the administration of fructose by oral gavage (45 mg fructose, equivalent to 1.5 g/kg body weight) or vehicle (water) to mice and following serum glucose levels over 90 minutes by measuring glucose with a glucometer from tail snip bleeds. With vehicle administration serum glucose stays normal, but when fructose is administered to aldolase B knockout mice a progressive fall in serum glucose occurs, as noted by the percent (%) of the baseline level. […]
row,Structure (SMILES),"hypoglycemic response to fructose (serum glucose, % of baseline)"
1,"Cc1cccc(-n2ncc3ccc(NC(=O)C4CNC4)cc32)c1 [Compound C-25, N-(1-(m-tolyl)-1H-indazol-6-yl)azetidine-3-carboxamide]",hypoglycemic response was prevented

# Target: KHK-C (Homo sapiens (Human), UniProt P50053)
# Sequence (P50053 whole entry): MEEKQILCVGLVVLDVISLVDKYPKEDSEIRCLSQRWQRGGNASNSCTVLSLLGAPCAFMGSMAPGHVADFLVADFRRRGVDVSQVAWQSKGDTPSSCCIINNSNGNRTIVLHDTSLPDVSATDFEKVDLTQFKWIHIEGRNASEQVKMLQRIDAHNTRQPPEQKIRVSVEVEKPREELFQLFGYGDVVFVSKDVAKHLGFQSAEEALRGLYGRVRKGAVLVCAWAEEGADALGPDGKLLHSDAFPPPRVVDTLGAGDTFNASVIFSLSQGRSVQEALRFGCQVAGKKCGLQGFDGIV
# Test: 3-step coupled-enzyme KHK assay (KHK, PK, LDH; NADH disappearance)
# Format: biochemical
# Settings: recombinant KHK-C, 1 mM fructose, A340 at 37° C.
# Method: Specific high-throughput screening assays were developed for KHK-C and KHK-A using recombinant proteins. Purified human recombinant KHK-C and KHK-A were produced using the Bio-Rad Profinity eXact Fusion-Tag System and Profinia protein purification instrument. The assays consist of a 3-step, coupled-enzyme process involving fructokinase (KHK), pyruvate kinase (PK) and lactate dehydrogenase (LDH). ^1,2 The disappearance of NADH is measured kinetically by A340 at 37° C. The enzymatic assay was carried out in a total reaction volume of 200 ul containing 50 mM PIPES, 6 mM MgCl2, 100 mM KCl, 100 uM-5 mM ATP, 2 mM phosphoenolpyruvate, 0.3 mM NADH, 15 U of pyruvate kinase, 15 U of lactate dehydrogenase, and 75-1000 ng KHKC. 1 mM fructose was added to the reactions, except for the no fructose controls which utilized water. The high-throughput assay was used to identify inhibitors that have an IC50 value <5 μM for KHK-C.^5 The '559 pub also sets forth a KHK assay for testing inhibition activity of potential KHK inhibitors.
row,Structure (SMILES),IC50
1,"Cc1cccc(-n2ncc3ccc(-c4ccnc(N)c4)cc32)c1 [Compound C-5, 4-(1-(m-tolyl)-1H-indazol-6-yl)pyridin-2-amine]",0.28 µM
2,"Cc1cccc(-n2ncc3ccc(NC(=O)C4CNC4)cc32)c1 [Compound C-25, N-(1-(m-tolyl)-1H-indazol-6-yl)azetidine-3-carboxamide]",0.51 µM
3,"O=C(NC1CCNCC1)c1ccc2cnn(-c3ccccc3)c2c1 [Compound C-26, 1-phenyl-N-(piperidin-4-yl)-1H-indazole-6-carboxamide]",2.3 µM
4,"Nc1cc(-c2ccc3c(C4CC4)nn(-c4ccccc4)c3c2)ccn1 [Compound C-28, 4-(3-cyclopropyl-1-phenyl-1H-indazol-6-yl)pyridin-2-amine]",0.7 µM
5,"Cc1cccc(-n2ncc3ccc(C(=O)NC4CCNCC4)cc32)c1 [Compound C-32, N-(piperidin-4-yl)-1-(m-tolyl)-1H-indazole-6-carboxamide]",0.79 µM
6,"Cc1cccc(-n2ncc3ccc(C(=O)NC4CNC4)cc32)c1 [Compound C-33, N-(azetidin-3-yl)-1-(m-tolyl)-1H-indazole-6-carboxamide]",2.3 µM
7,"O=C(NC1CNC1)c1ccc2cnn(-c3ccccc3)c2c1 [Compound C-34, N-(azetidin-3-yl)-1-phenyl-1H-indazole-6-carboxamide]",0.58 µM
8,Cc1cccc(-n2ncc3ccc(NC(=O)C4CCN4)cc32)c1 (stereo not shown) [Compound C-72],1.2 µM

# Same assay, conditions: recombinant KHK-C, 1 mM fructose, A340 at 37° C.; heading: IC50 Result
row,Structure (SMILES),IC50
1,"Nc1cc(-c2ccc3cnn(-c4ccccc4)c3c2)ccn1 [Compound C-1, 4-(1-phenyl-1H-indazol-6-yl)pyridin-2-amine]",1.17 µM
